Experimental data published in a melting point compilation (Tetko et al.; mined from patent text by program, amines drawn as free bases though some values may be those of a salt).

| Structure (SMILES) | melting point [°C] |
| --- | --- |
| O=C(O)CCc1[nH]c2cc(Cl)cc(Cl)c2c1Br | 228 |
| CC(C)N(CCn1c(CO)nc2c(N)nc3ccccc3c21)C(N)=O | > 240 |
| CCC(C)(NC(=O)c1cc(Cl)c(N)c(C=NOC)c1)C(=O)CCl (stereo unspecified) | 140 to 141 |
| O=C(NC(CCC(=O)N1CCCC1C(=O)O)C(=O)O)c1ccccc1 (stereo unspecified) | 102 to 104 |
| CC(=N)Nc1cccc(C#N)c1 | 228 to 230 |
| CC(C)(C)OC(=O)[C@H]1CC[C@@H](c2ccccc2)N1C(=O)CNC(=O)Nc1cccc(C(=O)OCc2ccccc2)c1 (racemic) | 75 |
| CN(C)C=C1Nn2c(nc(-c3ccc([N+](=O)[O-])o3)c2N)S1 | 304 |
| Oc1nnc(-c2ccc(CN3CCCCCC3)s2)o1 | 117 to 119 |
| COCCOc1ccccc1S(=O)(=O)NC(=O)Nc1nc(C)nc(OC)n1 | 134 to 138 |
| CCOC(=O)c1cn(C2CC2)c2c(F)c(N3CC[C@H](N)C3)c(F)cc2c1=O | 227 to 228 |
| CCOC(=O)CNC(=O)n1nc(Oc2c(Cl)cc(C(F)(F)F)cc2Cl)cc1C | 50 to 53 |
| CCOC(OCC)C1Cc2c(Br)ccc(OC)c2C1=O (stereo unspecified) | 76 to 78 |
| CSC(CC(=O)O)c1ccncc1 (stereo unspecified) | 187 to 189 |
| CN1CCOc2ccc(N)cc2C1=O | 165 |
| O=C(O)c1ccc(C(F)(F)F)c(N2CCOCC2)n1 | 116 to 117 |
| COC(=O)COc1ccc(Cl)cc1CC1CNC(=O)CN(S(=O)(=O)c2ccc(Cl)cc2)C1=O (stereo unspecified) | 138 to 140 |
| CC(C)C=CC1(C(F)(F)F)OCC(=O)Nc2ccc(Cl)cc21 (stereo unspecified) | 148 to 149 |
| CCOC(=O)c1ccc(-c2c[nH]c(-c3ccc4c(c3)C(C)(C)CCC4(C)C)n2)cc1 | 186 to 188 |
| CCOC(=O)N1CCN(Cc2ccc(O)c3ncccc23)CC1 | 92 to 93 |

| Structure (SMILES) | melting point [°C] |
| --- | --- |
| C[C@H]1C[C@@](O)(c2cnc(Cl)s2)CCO1 | 40 to 42 |
| CC(C)(C)OC(=O)[C@H]1C[C@H](S(=O)(=O)c2ccccc2)[C@@H](c2ccccc2)N1C(=O)CNC(=O)Nc1cccc(C(=O)O)c1 (racemic) | 213 |
| COc1cc(COC(=O)NCCN2CCOCC2)ccc1OC(C)=O | 82 to 83 |
| CCCCCCCCOC(=S)c1cc(C(C)(C)C)c(OC(=O)c2cc(C(C)(C)C)c(O)c(C(C)(C)C)c2)c(C(C)(C)C)c1 | 129 to 132 |
| Cn1nnc(-c2ccc3c(c2)c(C2=CCN(CCN4CCNC4=O)CC2)cn3-c2ccncc2)n1 | 177 to 178 |
| O=c1[nH]ccc2c1c(O)nc1cc(Cl)c(Cl)cc12 | > 350 |
| CCc1cc2c(s1)S(=O)(=O)Cc1cc(=O)n(-c3ccc(Cl)cc3)nc1-2 | 189 to 191 |
| CCCc1nn(C)c2c(=O)n(CCOc3ccc(NC(C)C(=O)OCC)cc3)c(CC)nc12 (stereo unspecified) | 100 to 104 |
| COC(=O)c1ccc(NC(=O)C(N)c2ccc3c(c2)C(C)(C)CCC3(C)C)s1 (stereo unspecified) | 110 to 112 |
| CCCCCCCCCCCc1nnc2n1-c1ccccc1C(c1ccc(Cl)cc1)NC2 (stereo unspecified) | 94 to 95 |
| CCCCCS(=O)(=O)NC(=O)/C=C/c1cc(OCCCC)nn1Cc1ccc(Cl)cc1Cl | 95 to 98 |
| CCCc1nn(C)c2c(=O)n(CCOc3ccc(SC(C)(C)C(=O)OCC)cc3)c(C)nc12 | 106 to 108 |
| CNC(=C[N+](=O)[O-])NCCSCc1csc(CO)n1 | 131 to 132 |
| CCc1ccc2nc(C)[nH]c2c1N1CC(CNC(C)=O)OC1=O (stereo unspecified) | 217 to 218 |
| CNC(=O)Nc1snc(S(C)=O)c1C(N)=O (stereo unspecified) | > 355 |
| CC(=O)c1cc(S(=O)(=O)N(C)C)ccc1O | 115 to 116 |
| COCCOc1cc(OCCN2CCCC2)c2c(=O)[nH]c(-c3cc(C)nc(C)c3)nc2c1 | 60.4 to 62.3 |
| CC1(C)SC(C)(C)C1C(=O)O | 149 to 151 |

Other lines, results leading:

| melting point [°C] | Structure (SMILES) |
| --- | --- |
| > 260 | Cc1nc2cccnc2c(O)c1C(=O)c1ccccc1 |
| 135 to 136 | CC(CC(=O)O)CC(=O)Nc1cccc(-c2ccnc3c(C(=O)c4cccs4)cnn23)c1 (stereo unspecified) |
| 154 to 155 | O=C(NCCn1cc(C(=O)OCc2ccccc2)ccc1=O)c1cccnc1 |
| 173 to 178 | O=C(Nc1ccc(C2=CCN(C(=O)Nc3ccc(OCCO)cc3Cl)CC2)cc1)Nc1ccccc1F |
| 293 to 295 | O=C(O)c1cccc(-c2ncc(O)cn2)c1 |
| 230 to 231 | CC1(C)CC(=C(c2ccc(O)cc2)c2ccc(-c3ccccc3C(=O)O)cc2)CC(C)(C)C1 |
| 201 to 203 | CCc1nc2c(N)nc(C)c(C)c2n1CCOCCNC(=O)NS(=O)(=O)c1ccccc1 |
| 129 to 130 | CCOC(=O)Nc1csc2cc(OCc3ccccc3)ccc12 |
| 83.5 to 86 | CCN(CC)CCNc1cc(Sc2ccc(Cl)cc2)nc(-c2ccccc2)n1 |
| 292 to 294 | COc1ccc2c(-c3ccccc3)c(C(=O)O)c(=O)[nH]c2c1 |
| 83 to 96 | CCCc1ccc2oc(Cc3ccc(OC)cc3)c(C)c2c1O |
| 254 | COc1cc(C(=O)O)ccc1Cc1cccc2ccc(C(=O)NCC(C)C)cc12 |
| 177 to 180 | CC(=O)COc1ccc(N2N=C3c4ccccc4SCC3CC2=O)cc1 (stereo unspecified) |
| 132 to 134 | CCOC=C1C(=O)N(c2cccc(Cl)c2)c2ccccc21 |
| 226 to 227 | Cc1ccc(-c2c(C(=O)Nc3nccs3)nc(-c3cccc4ccccc34)n2CCN2CCOCC2)cc1 |
| 154 to 156 | Nc1ccc2sc(C=Cc3ccccc3)nc2c1 |
| 197 to 198 | O=c1nc(-c2ccccn2)sc2ccc(OCCCO)cc12 |

| melting point [°C] | Structure (SMILES) |
| --- | --- |
| 133 to 135 | COCOCC#Cc1nc(-c2ccc(=O)n(C(C)C)n2)c(-c2ccccc2)nc1N |
| 110 to 112 | Cc1oc(-c2ccccc2)nc1CCOc1ccc([N+](=O)[O-])cn1 |
| 77 to 78 | O=C(O)C(=O)c1ccc(OCCCc2ccc(F)cc2)cc1 |
| 144 to 146 | O=C1C(Cl)=C(c2ccccc2)C(=O)N1Nc1ccccc1 |
| 135 to 138 | C[C@H](Nc1ncnc2[nH]cnc12)c1oc2ccccc2c(=O)c1-c1cccc(F)c1 |
| 115 to 117 | COc1c(Br)c(CO)c(OC)c2ccccc12 |
| 152 to 154 | CCCn1c(COCC)nc2c(N)nc3ccc(OCc4ccccc4)cc3c21 |
| 148 to 151 | CC(=O)Oc1cc(C(C)C)ccc1C1(OC(C)=O)C(=O)c2cccc(N)c2C1=O (stereo unspecified) |
| 127 to 130 | Cc1ncc(CSC(=O)c2ccccc2)c(C=O)c1O |
| 121 to 122 | CCOC(=O)Cn1c(=O)n(Cc2ccc(Cl)c(Cl)c2)c(=O)c2ccccc21 |
| 140 to 142 | COc1ccc(-c2cc(-c3ccc(O)c(F)c3)nc3c(Cl)cc(O)cc23)cc1 |
| 228 | COc1cc(-c2n[nH]c(N=C(c3ccccc3)c3ccccc3)n2)c(OC)cc1C |
| 137 to 138 | CC(C)c1oc(-c2ccc(F)cc2)nc1CC(=O)O |
| 152 to 153 | CS(=O)(=O)c1ccc(/C=C2/C(=O)CCc3ccccc32)cc1 |
| 94 to 95 | COCN1C(C)=C(C(=O)OCc2ccccc2)C(c2ccccc2C(F)(F)F)C(C(=O)OCc2ccccc2)=C1C |
| 100 | COc1ccc(S(=O)(=O)c2ccccc2C(C)C)cc1 |
| 78 to 79 | N#Cc1ccc(-c2ccccc2F)c(F)c1 |
